Source: US4946951A, “2'-deoxy-5-fluorouridine derivatives” (Taiho Pharmaceutical Co., Ltd., priority 1987, dated 1990)

Experiments:
[1] = inhibition of body weight gain in Sarcoma-180 bearing mice, oral administration (Pharmacological Test I); format: in vivo, male mice of ICR/JCL strain; settings: once a day for 7 consecutive days
Description: (§1) Tissues of Sarcoma-180 were subcutaneously transplanted into the back of male mice of ICR/JCL strain (weighing 27 to 30 g) in an amount of 5×10^6 cells each. The test compound was administered in the form of a weakly acidic aqueous solution. The solution was orally given to each mouse (7 mice in each group) in a dose of 1.0 ml/100 g body weight once a day for 7 consecutive days starting 24 hours after the transplantation, and a weakly acidic aqueous solution containing no test compound was orally administered to the control group in an amount of 1.0 ml/100 g body weight once a day for 7 consecutive days starting 24 hours after the transplantation.
(§2) The tumor was removed from the body on the 10the day after the transplantation and weighed to calculate the average weight of the tumors in the group to which the test compound-containing solution was given and the corresponding weight in the control group. The effective dose (ED50) for achieving 50% cancer inhibition was determined from the dose-response curve. The dose of 50% inhibition of body weight gain (IB50) was determined from the dose-body weight change curve. The therapeutic index (T.I. =IB50/ ED50) was determined with the results shown below in Table 6.

Sarcoma-180 [2] = experiment: antitumor activity against subcutaneous Sarcoma-180 in mice, oral administration (Pharmacological Test I); format: in vivo, male mice of ICR/JCL strain; settings: for ED50: Mus musculus, Sarcoma-180, 240 h, once a day for 7 consecutive days, tumor weight on 10th day, read-out: ED50 (effective dose for achieving 50% cancer inhibition)
Description: as §1, §2

Sarcoma-180 [3] = experiment: antitumor activity against subcutaneous Sarcoma-180 in mice, tail vein administration (Pharmacological Test II); format: in vivo, ICR mice; settings: Mus musculus, Sarcoma-180, iv, 240 h, once a day for 7 consecutive days, tumor weight on 10th day, read-out: ED50 (50% tumor inhibition dose, T/C = 0.5)
Description: Sarcoma-180 subcultured in ascites of ICR mice was diluted with a physiological saline and subcutaneously transplanted into the backs of ICR mice in an amount of 2×10^7 cells each. Twenty-four hours after the transplantation, a test compound dissolved in sterilized physiological saline was administered to the tail vein of each of the mice once a day for 7 consecutive days. The solid tumor was isolated from under the dorsal skin of mice on the 10th day after the transplantation to measure the weight of the tumor. There was determined the ratio (T/C) of the weight of tumor (T) of the test compound group to the weight of tumor (C) of the control group. The 50% tumor inhibition dose (ED50 value) in which T/C is 0.5 was determined from the dose response curve of dosage and the ratio (T/C).

[4] = compared with O^3' -p-chlorobenzyl-2'-deoxy-5-fluorouridine

NCC(=O)OC[C@H]1O[C@@H](n2cc(F)c(=O)[nH]c2=O)C[C@@H]1OCc1ccc(Cl)cc1 [Compound 12]
IB50 (dose of 50% inhibition of body weight gain) [1]: 3.60 mg/kg/day | T.I. (therapeutic index = IB50/ED50) (Sarcoma-180 [2]): 4.80 | ED50 (Sarcoma-180 [2]): 0.75 mg/kg | anti-cancer effect in words (Sarcoma-180 [2]; [4]): superior in anti-cancer effect | efficacy in words (Sarcoma-180 [2]; [4]): higher in efficacy | therapeutic index in words (Sarcoma-180 [2]; [4]): greater in therapeutic index

CC(C)[C@H](N)C(=O)OC[C@H]1O[C@@H](n2cc(F)c(=O)[nH]c2=O)C[C@@H]1OCc1ccc(Cl)cc1 [Compound 13]
ED50 (Sarcoma-180 [3]): 1.5 mg/kg

CC(C)C[C@H](N)C(=O)OC[C@H]1O[C@@H](n2cc(F)c(=O)[nH]c2=O)C[C@@H]1OCc1ccc(Cl)cc1 [Compound 14]
ED50 (Sarcoma-180 [3]): 1.5 mg/kg

NCC(=O)OC[C@H]1O[C@@H](n2cc(F)c(=O)[nH]c2=O)C[C@@H]1OCc1ccc(Cl)cc1Cl [Compound 19]
ED50 (Sarcoma-180 [3]): 0.8 mg/kg

C[C@H](N)C(=O)OC[C@H]1O[C@@H](n2cc(F)c(=O)[nH]c2=O)C[C@@H]1OCc1ccc(Cl)cc1 [Compound 22]
ED50 (Sarcoma-180 [3]): 1 mg/kg

NCC(=O)OC[C@H]1O[C@@H](n2cc(F)c(=O)[nH]c2=O)C[C@@H]1OCc1ccc(Cl)cc1 [Compound 28]
ED50 (Sarcoma-180 [3]): 1 mg/kg

Cl.NCC(=O)OC[C@H]1O[C@@H](n2cc(F)c(=O)[nH]c2=O)C[C@@H]1OCc1ccc(Cl)cc1 [Example 8 (E), 3'-O-(4-chlorobenzyl)-2'-deoxy-5-fluoro-5'-O-glycyluridine hydrochloride]
ED50 (Sarcoma-180 [3]): 1 mg/kg

O=c1[nH]c(=O)n([C@H]2C[C@H](OCc3ccc(Cl)cc3)[C@@H](CO)O2)cc1F [O^3' -p-chlorobenzyl-2'-deoxy-5-fluorouridine, reference compound]
IB50 (dose of 50% inhibition of body weight gain) [1]: 1.54 mg/kg/day | T.I. (therapeutic index = IB50/ED50) (Sarcoma-180 [2]): 1.64 | ED50 (Sarcoma-180 [2]): 0.94 mg/kg
